The source made the active and inactive calls.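 The calls were made as follows: active = compounds with mean IC50 of 15 µM or lower in the worm heat shock reporter counterscreen; inactive = the rest.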

The test system of the assay is C. elegans VP596 hsp-16.2 GFP/RFP heat-shock reporter. In words: hsp-16.2 heat-shock reporter inhibition in worms, SAR follow-up, counter-screen for SKN-1 inhibitor project, whole organism, C. elegans VP596, GFP/RFP ratio (AID 652155). On the technique in general: A counterscreen serves to expose hits that act by an unwanted route or on another target.
For orientation: IC50 means the concentration that inhibits the measured activity by half. On to `Clc1ccc(-c2csc(-c3cccnc3)n2)cc1`, for which the IC50 is > 64 µM (inactive).

On to `CCOc1cc(C(=O)NC2CCCC2)cc(Cl)c1OCc1ccc(F)cc1`, for which the IC50 was > 64 µM (inactive).

Consider `CCOc1cc(CNC2CCCC2)cc(Cl)c1OCc1ccc(F)cc1`, for which the IC50 is > 64 µM (inactive).

For the compound `CCOc1cc(CNC2CCC2)cc(Cl)c1OCc1ccc(F)cc1`, the IC50 is > 64 µM (inactive).

As for `Fc1ccc(-c2csc(-c3cccnc3)n2)cc1`, the IC50 was > 64 µM (inactive).

Regarding `Clc1ccc(-c2csc(-c3ccncc3)n2)cc1`, the IC50 was > 64 µM (inactive).

For `Fc1ccc(-c2csc(-c3ccncc3)n2)cc1`, the IC50 was > 64 µM (inactive).

As for `CCOc1cc(CNC2CCCC2)cc(Cl)c1OCc1ccccc1F`, the IC50 was > 64 µM (inactive).

Consider `Cc1ccc(-c2csc(-c3ccncc3)n2)cc1`, for which the IC50 is > 64 µM (inactive).

Turning to `CCOc1cc(CNC2CCCC2)cc(Cl)c1OC`, the IC50 is > 64 µM (inactive).

As for `c1ccc(-c2csc(-c3cccnc3)n2)cc1`, the IC50 is > 64 µM (inactive).

On to `CCOc1cc(CNC2CCCCC2)cc(Cl)c1OCc1ccc(F)cc1`, for which the IC50 was > 64 µM (inactive).

Turning to `Fc1ccc(COc2ccc(CNC3CCCC3)cc2Cl)cc1`, the IC50 was > 64 µM (inactive).

As for `CCOc1cc(CNC2CCCC2)cc(Cl)c1OCc1ccc(Cl)cc1`, the IC50 is > 64 µM (inactive).

As to `COc1ccc(-c2csc(-c3cccnc3)n2)cc1`, the IC50 is > 64 µM (inactive).

For the compound `CCOc1cc(CNC(C)C)cc(Cl)c1OCc1ccc(F)cc1`, the IC50 was > 64 µM (inactive).

With `Cc1ccc(-c2csc(-c3cccnc3)n2)cc1`, the IC50 is > 64 µM (inactive).

In the case of `COc1cc(CNC2CCCC2)cc(Cl)c1OCc1ccc(F)cc1`, the IC50 was > 64 µM (inactive).

Consider `CCOc1cc(CNC2CCCC2)cc(Cl)c1OCc1ccc(OC)cc1`, for which the IC50 was > 64 µM (inactive).

Consider `CCOc1cc(CNC2CCCC2)cc(Cl)c1OCc1ccccc1Cl`, for which the IC50 was > 64 µM (inactive).

Take `CCOc1cc(CNc2ccccc2)cc(Cl)c1OCc1ccc(F)cc1`: the IC50 was > 64 µM (inactive).

Turning to `CCOc1cc(CNCc2ccccc2)cc(Cl)c1OCc1ccc(F)cc1`, the IC50 is > 64 µM (inactive).

For the compound `COc1ccc(-c2csc(-c3ccncc3)n2)cc1`, the IC50 is > 64 µM (inactive).

Take `CCOc1cc(CNC2CCCC2)cc(Cl)c1OCc1cccc(F)c1`: the IC50 is > 64 µM (inactive).

In the case of `CCOc1cc(CNC2CC2)cc(Cl)c1OCc1ccc(F)cc1`, the IC50 was > 64 µM (inactive).

On to `CCOc1cc(CNC2CCCC2)ccc1OCc1ccc(F)cc1`, for which the IC50 is > 64 µM (inactive).

Take `c1ccc(-c2csc(-c3ccncc3)n2)cc1`: the IC50 is > 64 µM (inactive).

For the compound `CCOc1cc(CNC2CCCC2)cc(Cl)c1OCc1ccc(C)cc1`, the IC50 was > 64 µM (inactive).
